A value given as a limit tells only on which side of the number the result lay.

As for `COC(=O)C(C(=O)OC)C(=O)C(C)Oc1ccc(Oc2ccc(C(F)(F)F)cc2)cc1` (stereo unspecified), the melting point (commonly the temperature of the solid-liquid transition) was 40 to 44 °C.

The compound `CSC1=CC2=CN(O)NN2C(SC)=N1` came in with a melting point of 275 to 278 °C.

`Cc1ccc(-c2ccnc3c(C(N)=O)ncn23)cc1`: the melting point lay within 263 to 266 °C.

Compound `CC(CCC1(C(N)=O)c2ccccc2-c2ccccc21)N(C)C` (stereo unspecified) had a melting point of 104 to 106 °C.

With `CCOC(=O)COc1ccc(C23CC4CC(CC(C4)C2)C3)cc1`, the melting point is 89 to 90 °C.

With `CCOC(=O)C1=C(C)NC(c2ccc(OC)cc2)=C(C(=O)OCC)C1c1cccc([N+](=O)[O-])c1` (stereo unspecified), the melting point lay in the range of 166 to 167 °C.

Regarding `CC1=CC(=O)C(C(=O)Cc2ccccc2)C(=O)O1` (stereo unspecified), the melting point is 150 to 151 °C.

Consider `COc1ccccc1CNc1ccc2cc(Nc3cc(C)on3)ccc2n1`, for which the melting point was 132 °C.

As to `CCOC(=O)C1[C@@H]2[C@@H](O)[C@@H]3O[C@H](c4cccc(OC)c4)OC[C@H]3O[C@H]12` (stereo partly specified), the melting point is 107 °C.

Consider `CCNC(=O)[C@@H]1CCCN1C(=O)[C@H](C)NC(=O)OCC`, for which the melting point was in the range of 126 to 128 °C.

Compound `Nc1c(C=O)cc(-n2cnnc2)cc1C(F)(F)F` registered a melting point of 234 to 236 °C.

As for `CC(=O)NC1C2CC(=O)CC1C(N)=C(O)C2=O` (stereo unspecified), the melting point was more than 280 °C.

The compound `CCOc1ccc2nc(SC)c(C=O)cc2c1` registered a melting point of 124 to 125 °C.

Take `CCCCOC(Cc1ccc(OCCN2c3ccccc3Oc3ccccc32)cc1)C(=O)O` (stereo unspecified): the melting point was 84 to 88 °C.

Take `CC12CCC(C(=O)O)=CC1=CCC1C2CCC2(C)C(C(=O)CCc3ccc(F)cc3)CCC12` (stereo unspecified): the melting point is 220 °C.

Compound `CN(C(=O)COc1ccccc1)c1ccc(OC23CC4CC(CC(C4)C2)C3)cc1` registered a melting point of 89 to 91 °C.

In turn, `Nc1c(C(=O)c2ccccc2)cnc2[nH]ncc12` displayed a melting point of 282 to 283 °C.

Regarding `Cc1cc2c(-c3ccccc3)c(CCNC(=O)OCc3ccccc3)n(C)c(=O)c2cc1C`, the melting point was 227 to 228 °C.

`N#Cc1cncc(NCc2ccccc2)c1` showed a melting point of 131 °C.

With `CC(C)(C)c1nc2c(Cl)cc(F)c(-n3c(=O)cc(C(F)(F)F)n(N)c3=O)c2o1`, the melting point lay within 90 to 92 °C.

`CCOc1ccc(C=NO)cc1` came in with a melting point of 81 to 86 °C.

The compound `O=[N+]([O-])c1ccccc1C(=C(Br)Br)c1ccc(F)cc1` registered a melting point of 99 to 100 °C.

Turning to `CCc1cccc(C)c1CNc1cc(CNC)cn2nc(C)nc12`, the melting point came to 179 °C.

For the compound `COc1ccc2[nH]c(S(=O)(=O)c3ccc(=O)[nH]n3)cc2c1`, the melting point was more than 250 °C.

For `CC(C)(CO)C[C@H]1COC(C)(C)N1C(=O)OC(C)(C)C`, the melting point was in the range of 45 to 46 °C.

`O=C(NNC(c1ccccc1)(c1ccccc1)c1ccccc1)c1ccccc1` had a melting point of 130 to 131 °C.

Turning to `COC(=O)CC1Cc2ccc(O)cc2NC1=O` (stereo unspecified), the melting point lay in the range of 178 to 180 °C.

In turn, `O=Cc1ccc(Cl)c(Cl)c1O` gave a melting point of 97 °C.

`Cn1c(C(F)(F)F)ccc(-c2cc(C#N)c(Cl)cc2F)c1=O` registered a melting point of 180 to 181 °C.

With `CSC1NC(=O)N(Cc2ccccc2)C(=O)N1N=C(C)C` (stereo unspecified), the melting point lay within 148 to 150 °C.

`O=C(CNc1ccc(F)c(F)c1)Nc1c(Cl)ccc2nc(N3CC[C@@H](O)C3)ccc12` displayed a melting point of 238 to 240 °C.

Take `COc1c(C(C)C)cc(S(N)(=O)=O)c(C)c1C(=O)NCC1CCCN1C1CCCC1` (stereo unspecified): the melting point was 196 °C.

Compound `O=C(Nc1cc(C(F)(F)F)cc(C(F)(F)F)c1)c1ccccc1SSc1ccccc1C(=O)Nc1cc(C(F)(F)F)cc(C(F)(F)F)c1` showed a melting point of 213 to 214 °C.

With `CN(Cc1ccc2c(Br)c(O)ccc2c1)C(=O)c1cn(Cc2ccccc2)c2ccccc12`, the melting point is 181 to 182 °C.

In the case of `COCc1ccc(Oc2cc(OC(C)C)c3[nH]c(C4=NCC(CC(=O)NC5CC5)S4)cc3c2)cn1` (stereo unspecified), the melting point fell in the range of 100 to 101 °C.

In turn, `CCCCn1c(=O)c2c(NC)n[nH]c2n(Cc2ccc(OC)cc2)c1=O` showed a melting point of 292 to 294 °C.

The compound `COc1ccc(S(=O)(=O)N2CCc3cccc(-c4ccc(F)c(F)c4)c32)cc1` displayed a melting point of 180 to 181 °C.

`COc1ccccc1N1CCN(C(=O)Cc2ccccc2Br)CC1` registered a melting point of 95 to 97 °C.

The compound `O=C(O)CC/C=C/CC(NC(=O)c1ccccc1)C(=O)O` (stereo unspecified) yielded a melting point of 138 °C.

As to `Cc1cc(Cl)nc(C=Cc2ccccc2)n1`, the melting point was 71 to 73 °C.

For `O=C(Nc1ccc2[nH]ncc2c1)OC(c1cccc(C(=O)Nc2ccccc2)c1)[C@@H]1CCCCN1` (stereo partly specified), the melting point was determined as 150 °C.

Turning to `O=[N+]([O-])c1ccc(CCc2nccs2)cc1`, the melting point lay within 92 to 93 °C.

In turn, `C/C=C(\C)CNc1cccc(-c2ccnc3c(C(=O)c4cccs4)cnn23)c1` came in with a melting point of 118 to 120 °C.

`CCc1cccc(C)c1N1C(=O)CCN(CC)C1=S` yielded a melting point of 74 to 77 °C.

`COC(=O)c1ccc(Nc2ccc(C#N)cc2NC(C)=O)cc1`: the melting point lay in the range of 231 to 232 °C.

`CC(=O)Nc1ccc(-c2ccc(CCCC(=O)O)cc2)cc1Br` came in with a melting point of 155 to 156 °C.

On to `CN1CCN(S(=O)(=O)c2cccc(NC(=O)c3cnn4c(C(F)F)cc(-c5ccc(Cl)cc5)nc34)c2)CC1`, for which the melting point was 147 °C.

For the compound `CCOC(=O)c1c(-c2ccc(CBr)cc2)nc2ccccn12`, the melting point was 131 °C.

Compound `CC(=O)N1CCc2c(c3ccc(-n4ccc(OCc5ccc(F)cn5)cc4=O)cc3n2C)C1` had a melting point of 220 to 224 °C.

Compound `CCCCCCOC(=O)CS(=O)(=O)Nc1c(C(C)C)cccc1C(C)C` registered a melting point of 66 to 68 °C.

With `Fc1ccc(-c2ncn(C3CCNCC3)c2-c2cccnc2Oc2ccc(OCc3ccccc3)cc2)cc1`, the melting point lay within 178 to 179 °C.

In turn, `CCOC(=O)Cn1c(-c2ccccn2)nc2cccnc21` yielded a melting point of 109 to 111 °C.

For the compound `CCOC(=O)c1ncc2[nH]c3ccc(SC)cc3c2n1`, the melting point lay within 265 to 266 °C.

Compound `O=C(Cc1cccnc1)Nc1cccc(-c2ccnc3c(C(=O)c4cccs4)cnn23)c1` came in with a melting point of more than 200 °C.

Consider `Cn1nnnc1-c1cnc2cc(F)c(F)cc2c1O`, for which the melting point is more than 300 °C.

In turn, `CS(=O)(=O)c1cc(CC(=O)O)cc2c1NC(C(F)(F)F)CC2` (stereo unspecified) showed a melting point of 124 to 125 °C.

In turn, `Cc1cc(-c2ccccc2)n2nc(Cl)nc2n1` displayed a melting point of 179 to 181 °C.

`CS(=O)c1ccc(C#N)cc1` (stereo unspecified) came in with a melting point of 87 to 90 °C.

In turn, `CC(C)Oc1cc(/C=C/C(=O)O)n(Cc2ncc(C(F)(F)F)cc2Cl)n1` yielded a melting point of 130 to 132 °C.

For the compound `O=[N+]([O-])c1ccc(-c2nn(-c3ccccn3)cc2C=NO)o1`, the melting point is 234 to 235 °C.

Regarding `OCC1Cc2c(F)ccc(Br)c2O1` (stereo unspecified), the melting point was 40 to 43 °C.

With `CCOC(=O)c1c(-c2ccc(F)cc2)c(-c2ccc(F)cc2)c(C=O)n1C(C)C`, the melting point is 92 to 94 °C.

As for `OCCN=Cc1ccc(Br)cc1`, the melting point lay in the range of 79 to 81 °C.

As to `COCCOc1ccc(/C=C/C(=O)NS(=O)(=O)NCCc2ccccc2)c(Oc2ncc(C(F)(F)F)cc2Cl)c1`, the melting point was 85 to 85.5 °C.

For the compound `O=C1c2c(-c3ccccc3)cc(CNC3CC3)nc2OCCN1Cc1cc(C(F)(F)F)cc(C(F)(F)F)c1`, the melting point lay in the range of 129 to 131 °C.

In the case of `CCCN1C(=O)CN(C)C1S(=O)(=O)N=NC(=O)Nc1nc(OC)cc(OC)n1` (stereo unspecified), the melting point lay within 96 to 98 °C.

As for `Cc1nn2c3c1c(=O)[nH]c(=O)n3CC=C2c1cc(Cl)ccc1Cl`, the melting point lay in the range of 205 to 209 °C.

`O=C(O)c1cccc([N+](=O)[O-])c1Nc1ccccc1Cl` showed a melting point of 213 to 215 °C.

On to `O=C(Nc1ccc(Cl)cn1)c1cc(Cl)ccc1NCC1CCN(C2CCSCC2)CC1`, for which the melting point fell in the range of 200 to 203 °C.

`c1ccc(CNc2ccncc2)cc1`: the melting point lay within 108 to 110 °C.

`Cc1cc(O)ccc1-c1c(C=O)sc(-c2ccc(O)cc2)c1C` returned a melting point of 244 to 247 °C.

As for `CCCc1nc2c(N)nc3ccccc3c2n1CCC(=O)OCC`, the melting point is 156 to 157 °C.

Compound `CCC(C)C(C)C(=O)Nc1ccc2ncnc(NC=C(C(=O)OC)C(=O)OC)c2c1` (stereo unspecified) displayed a melting point of 216 to 217 °C.

`Cn1cc(Cl)cnc1=O` came in with a melting point of 210 °C.

The compound `Clc1ccc(N=Cc2ccc(Cl)c3cc(Cl)cnc23)c(Cl)c1` showed a melting point of 156 °C.

On to `O=C1Cc2cccc(Sc3ccccc3)c2N1`, for which the melting point lay within 160 to 161 °C.

`CC1Sc2c(C(=O)O)c(=O)c3cc(F)c(N4CCOCC4)cc3n21` (stereo unspecified) showed a melting point of 192 to 198 °C.

For `Nc1cc(Cl)cc(Cl)c1C(=O)NCc1ccccc1`, the melting point fell in the range of 90 to 96 °C.

With `C=CCC(N)c1cccc(OC)c1` (stereo unspecified), the melting point was found to be 30 °C.

`Oc1ccccc1-c1ccc(Cl)nn1` displayed a melting point of 188 °C.

`COCCSc1ccccc1S(N)(=O)=O`: the melting point was in the range of 127 to 130 °C.

Turning to `Cc1ccc(-c2cc(OCC(=O)N3CCOCC3)c3ccccc3n2)cc1`, the melting point came to 146 °C.

Compound `CCOC(=O)Cn1ncc(-c2ccccc2)c1-c1ccccc1` came in with a melting point of 79 to 81 °C.

Compound `CCOC(=O)c1cn2c(cc(OC(C)C)c3ccccc32)n1` came in with a melting point of 127 to 129 °C.

`COc1cc(OC)cc(-n2c(-c3ccccc3F)cc(=O)c(C)c2-c2ccc(F)cc2F)c1` displayed a melting point of 171 to 173 °C.

The compound `Cc1ccncc1C(O)c1ccc2cc(C(=O)OC(C)C)ccc2c1` (stereo unspecified) gave a melting point of 180 to 183 °C.

For `Cc1cc(C)cc(NCc2ccc3nc(NC4CCN(CCS(N)(=O)=O)CC4)n(Cc4nc(C)ccc4O)c3c2)c1`, the melting point amounted to 142 °C.

The compound `CCC(C)COc1ccc(-c2ccc(OS(=O)(=O)c3ccc(C)cc3)cc2)cc1` (stereo unspecified) showed a melting point of 94 to 97 °C.

Regarding `OCCNCC(O)c1ccccc1` (stereo unspecified), the melting point lay within 96 to 98 °C.

Take `CC(C)(S)CNC(=O)COCC(=O)O`: the melting point is 81 to 82 °C.

As to `NC(=O)Cc1c(-c2ccccc2)nn2cccnc12`, the melting point was 217 to 219 °C.
